In the NIST ThermoML archive (doi:10.1016/j.jct.2007.06.014):

Settings: Liquid, Bellows volumetry

CCCC [butane]
mass density [kg/m3]
Settings	380 K	400 K	420 K	440 K
3000 kPa	463.27	–	–	–
5000 kPa	474.65	437.19	–	–
10000 kPa	494.93	466.97	436.16	401.28
20000 kPa	521.9	500.93	479.15	457.43
30000 kPa	–	522.83	504.89	487.23
40000 kPa	555.85	539.73	523.9	508.57
50000 kPa	–	553.54	539.08	525.26
60000 kPa	579.32	565.44	551.8	539.13
70000 kPa	–	575.77	563.07	551.03
80000 kPa	597.57	585.08	572.94	561.56
90000 kPa	–	593.33	581.86	571.14
100000 kPa	612.79	601.18	589.89	579.66
120000 kPa	625.93	614.9	604.27	594.85
140000 kPa	637.29	627.05	617.11	608.04
160000 kPa	647.82	637.77	628.25	619.73
180000 kPa	657.28	647.6	638.65	630.34
200000 kPa	665.98	656.49	647.73	639.98
